Reference: US20240270725A1, “MAGL INHIBITORS” (Hoffmann-La Roche Inc., priority 2021, published 2024)
Values belong to the compound of their own block, whether it stands above or below them.

Tests used:
[1] = target: T1, MAGL (Homo sapiens, UniProt Q99685); assay: 2-AG assay, MAGL inhibitory activity (human); assay type: biochemical
T1 sequence (Q99685 1-303): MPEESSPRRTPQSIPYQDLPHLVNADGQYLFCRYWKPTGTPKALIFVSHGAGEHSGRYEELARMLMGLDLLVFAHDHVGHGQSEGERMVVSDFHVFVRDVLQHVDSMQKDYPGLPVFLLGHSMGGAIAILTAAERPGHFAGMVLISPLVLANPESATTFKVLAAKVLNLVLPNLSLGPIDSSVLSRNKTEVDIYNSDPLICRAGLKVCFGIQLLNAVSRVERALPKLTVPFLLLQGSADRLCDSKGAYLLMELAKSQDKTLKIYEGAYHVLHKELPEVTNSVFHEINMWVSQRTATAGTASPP
Method: (§1) Compounds were profiled for MAGL inhibitory activity by determining the enzymatic activity by following the hydrolysis of the natural substrate, 2-arachidonoylglycerol, resulting in arachidonic acid, which can be followed by mass spectrometry. This assay is hereinafter abbreviated “2-AG assay”.
(§2) A C18 SPE cartridge (G9205A) was used in an acetonitrile/water liquid setup. […] The activity of the compounds was calculated based on the ratio of intensities [arachidonic acid/d8-arachidonic acid].

[2] = target: T2, MAGL (Mus musculus, UniProt O35678); assay: 2-AG assay, MAGL inhibitory activity (mouse); assay type: biochemical
T2 sequence (O35678 1-303): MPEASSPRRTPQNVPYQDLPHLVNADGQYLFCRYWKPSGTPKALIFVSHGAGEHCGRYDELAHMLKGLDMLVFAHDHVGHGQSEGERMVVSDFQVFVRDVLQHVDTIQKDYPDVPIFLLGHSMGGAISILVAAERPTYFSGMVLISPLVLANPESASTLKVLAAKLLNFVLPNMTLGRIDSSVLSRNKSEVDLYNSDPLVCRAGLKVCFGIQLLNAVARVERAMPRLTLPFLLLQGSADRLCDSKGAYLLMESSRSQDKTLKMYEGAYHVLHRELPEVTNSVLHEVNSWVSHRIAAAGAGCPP
Method: as §1, §2

[3] = target: T2, MAGL; assay: Drug occupancy study by PET with [^18F]-II; assay type: in vivo
Method: To investigate the utility of [^18F]-II, a drug occupancy study was conducted after validating the in vitro/vivo specificity. The potent and selective covalent MAGL inhibitor PF-06795071, originally developed for anti-inflammatory treatments, was applied for this study (McAllister LA, Butler C R, Mente S, et al. Discovery of Trifluoromethyl Glycol Carbamates as Potent and Selective Covalent Monoacylglycerol Lipase (MAGL) Inhibitors for Treatment of Neuroinflammation. J Med Chem. 2018;61:3008-3026). PF-06795071 was prepared as a transparent solution in a vehicle of DMSO/Cremophor/saline (v/v/v=5/5/90). The animal was treated with escalating doses of PF-06795071 (0.002, 0.01, 0.05, 0.2 and 2 mg/kg) 1 hour prior to the administration of [^18F]-II (4.15-11.13 MBq, 6.84-13.19 nmol/kg). The in vivo PET scans and data reconstruction were carried out as described in Example 9. The SUVs from the whole brain TACs was averaged from 0-90 min to obtain SUV0-90 min in receptor occupancy study as previously detailed by Krämer et al. (Krämer SD, Betzel T, Mu L, et al. Evaluation of ^11C-Me-NB1 as a Potential PET Radioligand for Measuring GluN2B-Containing NMDA Receptors, Drug Occupancy, and Receptor Cross Talk. J Nucl Med. 2018;59:698-703). The non-linear curve was fitted with GraphPad Prism Software (version 8.3.4, GraphPad Software Inc) for D50 value.

[4] = target: T3, MAGL (Rattus norvegicus, UniProt Q8R431); assay: In vitro autoradiography blockade on rat brain section; assay type: binding; details: 10 μM blocker
T3 construct: from tissue; host or cells: Wistar rat brain sections
T3 sequence (Q8R431 1-303): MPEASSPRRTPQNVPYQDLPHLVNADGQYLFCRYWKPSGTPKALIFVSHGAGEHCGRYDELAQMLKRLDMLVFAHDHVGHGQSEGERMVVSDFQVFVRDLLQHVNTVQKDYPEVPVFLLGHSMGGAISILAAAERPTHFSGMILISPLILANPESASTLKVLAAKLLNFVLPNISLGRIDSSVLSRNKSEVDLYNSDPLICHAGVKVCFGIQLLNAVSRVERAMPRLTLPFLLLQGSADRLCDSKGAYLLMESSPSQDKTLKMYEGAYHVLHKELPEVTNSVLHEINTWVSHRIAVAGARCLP

[5] = tested on: MAGL; assay: In vivo PET scans in MAGL KO and WT mice; details: mouse brain, at 1 min p.i., intravenous
Method: The animal was anesthetized using isoflurane and placed in the PET/CT scanner (Super Argus, Sedecal, Madrid, Spain). The radiotracer was injected intravenously, and data was acquired at 1 min post-injection. The dynamic PET scan lasted 60 min for [^11C]-I, while it's prolonged to 90 min for [^18F]-II and [^18F]-III. […] The regions of interest (ROI) were defined on an MRI T2 (W.Schiffer) template provided by PMOD v4.002 (PMOD Technologies, Zurich, Switzerland) to generate the corresponding time acitivity curves (TACs). The radioactivity accumulations in the whole brain and different regions were expressed as standardized uptake values (SUVs), which is the decay-corrected regional radioactivity normalized to the injected radioactivity and body weight.

[6] = tested on: MAGL
Method: Frozen brain tissues of Wistar rats or mouse were cut in the thickness of 10 μm on a cryostat (Cryo-Star HM 560 MV; Microm, Thermo Scientific, Wilmington, DE), and stored at −20° C. before use. Before the experiments, the slices were thawed on ice for 10 min and subsequently immersed into aqueous 50 mM Tris buffer (pH 7.4, 30 mM HEPES, 1.2 mM MgCl2, 110 mM NaCl, 5 mM KCl, 2.5 mM CaCl2) containing 3% fatty acid free bovine serum albumin (BSA) at 0° C. for 10 min for precondition. Upon drying, incubation was carried out in a humidified chamber with the radiotracer at room temperature for 30 min. […] The slices were decanted after incubation, and washing procedure was conducted. The slices were left to dry before attaching to phosphor imager plates (Fuji, Dielsdorf, Switzerland), and exposure was lasted for 60 min. The films were later scanned by BAS5000 reader (Fuji), and data analysis was performed using AIDA 4.50.010 software (Raytest Isotopenmessgerate GmbH, Straubenhardt, Germany).

[7] = tested on: MAGL; details: reported in Hattori et al., J Med Chem 2019; cited from earlier work

IC50 [1]: 6.5 nM | IC50 [2]: 4.3 nM
SMILES: COc1cccc(-c2ccc(N3C[C@H](N4CCN(C(=O)c5ccco5)CC4)CC3=O)cc2)c1 [I, (R)-4-(4-(Furan-2-carbonyl)piperazin-1-yl)-1-(3′-methoxy-[1,1′-biphenyl]-4-yl)pyrrolidin-2-one]

IC50 [1]: 11.5 nM | IC50 [2]: 11.3 nM
SMILES: O=C(c1ccco1)N1CCN([C@@H]2CC(=O)N(c3ccc(-c4cccc(F)c4)cc3)C2)CC1 [III, (R)-1-(3′-Fluoro-[1,1′-biphenyl]-4-yl)-4-(4-(furan-2-carbonyl)piperazin-1-yl)pyrrolidin-2-one]

effect on [^18F]-II accumulation in the mouse brain ([3]; 0.002 to 2 mg/kg): dose-dependent reduction | required dose to occupy 50% MAGL in the mouse brain (D50) ([3]; given 1 hour prior to [^18F]-II, SUV0-90 min whole brain): 0.034 mg/kg
SMILES: O=C(O[C@H](CO)C(F)(F)F)N1C[C@@H]2C(c3ccn(-c4ccc(F)cc4)n3)[C@@H]2C1 (stereo partly shown) [PF-06795071]

SMILES: O=C(OC(C(F)(F)F)C(F)(F)F)N1CCC(CNS(=O)(=O)c2ccc(Cl)cc2)CC1 [SAR127303]
blockade of specific binding of [^11C]-I [4]: substantial reduction and homogenous distribution of the radioactivity

SMILES: [11CH3]Oc1cccc(-c2ccc(N3C[C@H](N4CCN(C(=O)c5ccco5)CC4)CC3=O)cc2)c1 [[^11C]-I, (R)-4-(4-(furan-2-carbonyl)piperazin-1-yl)-1-(3′-(methoxy-^11C)-[1,1′-biphenyl]-4-yl)pyrrolidin-2-one]
SUVmax (brain uptake) [5]: ~1.32 | specificity and selectivity in vitro ([6]; autoradiography, blockade and MAGL KO brain section): high specificity and selectivity | distribution of radioactive signal accumulation on brain slices ([6]; ~1 nM radiotracer, mouse or rat brain slice): heterogeneous distribution of radioactive signal accumulation, which matched to the MAGL expression pattern in rodents

SUVmax (brain uptake) [5]: ~1.63
SMILES: O=C(c1ccco1)N1CCN([C@@H]2CC(=O)N(c3ccc(-c4cccc([18F])c4)cc3)C2)CC1 [[^18F]-III]

SUVmax (brain uptake) [5]: ~1.56
SMILES: O=C(c1ccco1)N1CCN([C@@H]2CC(=O)N(c3ccc(-c4ccc([18F])cc4)cc3)C2)CC1 [[^18F]-II]

SMILES: Cc1ccnc([18F])c1-c1cccc(N2C[C@H](N3CCN(C(=O)c4nccs4)CC3)CC2=O)c1 [[^18F]T-401, (4R)-1-{3-[2-(^18F)Fluoro-4-methylpyridin-3-yl]phenyl}-4-[4-(1,3-thiazol-2-ylcarbonyl)piperazin-1-yl]pyrrolidin-2-one]
SUVmax (brain uptake), literature [7]: ~0.7
